Columns and labels:
Assay type in all cases: cell-based
ABCB1 = target: T1, ABCB1 (Homo sapiens, UniProt P08183); experiment: calcein AM fluorescence accumulation assay, ABCB1-overexpressing A2780/ADR cells; settings: for activity against ABCB1 in preliminary screening: screened at 10 µM, active = at least 20% (+SEM) of effect of 10 µM compound 2
T1 construct: ABCB1-overexpressing A2780/ADR (30,000 cells/well); host or cells: A2780/ADR
Procedure: (§1) Compounds 16–25 were screened at 10 µM in calcein AM (ABCB1 and ABCC1) as well as pheophorbide A (ABCG2) fluorescence accumulation assays using either ABCB1-overexpressing A2780/ADR, ABCC1-overexpressing H69AR, or ABCG2-overexpressing MDCK II BCRP cells, respectively, as reported earlier, [43], [45], [67], [101]. Calcein AM and pheophorbide A are substrates of ABCB1 and ABCC1 as well as ABCG2, respectively, which passively diffuse into the used cells and become extruded by the corresponding ABC transporter. Inhibition of the respective transporter results in the accumulation of these substrates. Calcein AM is subsequently cleaved by intracellular esterases to the fluorescent calcein, while pheophorbide A is already fluorescent. Intracellular fluorescence was determined via microplate reader (calcein AM; ABCB1 and ABCC1) and flow cytometry (pheophorbide A; ABCG2), respectively. Compounds 2 (Fig. 1) and 26–27 (Fig. 5) were used as reference inhibitors against ABCB1, ABCC1, and ABCG2, respectively, as reported before, [101]. Fig. 7 provides the screening results for ABCB1 (A), ABCC1 (B), and ABCG2 (C).
(§2) The ABCB1-overexpressing A2780/ADR cells were delivered by European Collection of Animal Cell Culture (ECACC, no. 93112520) and cultivated using RPMI-1640 medium (PAN-Biotech GmbH, Aidenbach, Germany) complemented with fetal bovine serum (FCS; 10%; PAN-Biotech GmbH, Aidenbach, Germany), streptomycin (50 µg/µL; PAN-Biotech GmbH, Aidenbach, Germany), penicillin G (50 U/mL; PAN-Biotech GmbH, Aidenbach, Germany), as well as L-glutamine (2 mM; PAN-Biotech GmbH, Aidenbach, Germany). The ABCC1-overexpressing H69AR cells were provided by American Type Culture Collection (ATCC CRL-11351), which were cultured with RPMI-1640 medium to which FCS (20%), streptomycin (50 µg/µL), penicillin G (50 U/mL), as well as L-glutamine (2 mM) were added. Dr. A. Schinkel (The Netherlands Cancer Institute, Amsterdam, The Netherlands) generously provided the ABCG2-overexpressing MDCK II BCRP cells, which were cultivated in Dulbecco's modified eagle medium (DMEM; Sigma Life Science, Steinheim, Germany) complemented with FCS (10%), streptomycin (50 µg/µL), penicillin G (50 U/mL), as well as L-glutamine (2 mM). The cell lines were stored in a mixture of 90% cell culture medium and 10% DMSO under liquid nitrogen, while cultivation was performed at 37 °C under 5% CO2-humidified atmosphere. After a confluence of 90% was reached, the cells were harvested using a 0.05%/0.02% trypsin-EDTA solution (PAN-Biotech GmbH, Aidenbach, Germany). […]
(§3) The inhibitory activity against ABCB1 and ABCC1 was evaluated in a calcein AM assay as reported earlier, [67], [101]. […] The incubation period at 37 °C under 5% CO2-humidified atmosphere lasted 30 min before 20 µL of a 3.125 µM calcein AM was added to each well, subsequently followed by measurement of fluorescence increase at an excitation wavelength of 485 nm and an emission wave length of 520 nm in 60 sec intervals for 1 h in either POLARstar and FLUOstar Optima microplate readers (BMG Labtech, software versions 2.00R2/2.20 and 4.11-0; Offenburg, Germany).

ABCC1 = target: T2, ABCC1 (Homo sapiens, UniProt P33527); experiment: calcein AM fluorescence accumulation assay, ABCC1-overexpressing H69AR cells; settings: for activity against ABCC1 in preliminary screening: screened at 10 µM, active = at least 20% (+SEM) of effect of 10 µM compound 26
T2 construct: ABCC1-overexpressing H69AR (60,000 cells/well) cells were added; host or cells: H69AR
T2 sequence (P33527 whole entry): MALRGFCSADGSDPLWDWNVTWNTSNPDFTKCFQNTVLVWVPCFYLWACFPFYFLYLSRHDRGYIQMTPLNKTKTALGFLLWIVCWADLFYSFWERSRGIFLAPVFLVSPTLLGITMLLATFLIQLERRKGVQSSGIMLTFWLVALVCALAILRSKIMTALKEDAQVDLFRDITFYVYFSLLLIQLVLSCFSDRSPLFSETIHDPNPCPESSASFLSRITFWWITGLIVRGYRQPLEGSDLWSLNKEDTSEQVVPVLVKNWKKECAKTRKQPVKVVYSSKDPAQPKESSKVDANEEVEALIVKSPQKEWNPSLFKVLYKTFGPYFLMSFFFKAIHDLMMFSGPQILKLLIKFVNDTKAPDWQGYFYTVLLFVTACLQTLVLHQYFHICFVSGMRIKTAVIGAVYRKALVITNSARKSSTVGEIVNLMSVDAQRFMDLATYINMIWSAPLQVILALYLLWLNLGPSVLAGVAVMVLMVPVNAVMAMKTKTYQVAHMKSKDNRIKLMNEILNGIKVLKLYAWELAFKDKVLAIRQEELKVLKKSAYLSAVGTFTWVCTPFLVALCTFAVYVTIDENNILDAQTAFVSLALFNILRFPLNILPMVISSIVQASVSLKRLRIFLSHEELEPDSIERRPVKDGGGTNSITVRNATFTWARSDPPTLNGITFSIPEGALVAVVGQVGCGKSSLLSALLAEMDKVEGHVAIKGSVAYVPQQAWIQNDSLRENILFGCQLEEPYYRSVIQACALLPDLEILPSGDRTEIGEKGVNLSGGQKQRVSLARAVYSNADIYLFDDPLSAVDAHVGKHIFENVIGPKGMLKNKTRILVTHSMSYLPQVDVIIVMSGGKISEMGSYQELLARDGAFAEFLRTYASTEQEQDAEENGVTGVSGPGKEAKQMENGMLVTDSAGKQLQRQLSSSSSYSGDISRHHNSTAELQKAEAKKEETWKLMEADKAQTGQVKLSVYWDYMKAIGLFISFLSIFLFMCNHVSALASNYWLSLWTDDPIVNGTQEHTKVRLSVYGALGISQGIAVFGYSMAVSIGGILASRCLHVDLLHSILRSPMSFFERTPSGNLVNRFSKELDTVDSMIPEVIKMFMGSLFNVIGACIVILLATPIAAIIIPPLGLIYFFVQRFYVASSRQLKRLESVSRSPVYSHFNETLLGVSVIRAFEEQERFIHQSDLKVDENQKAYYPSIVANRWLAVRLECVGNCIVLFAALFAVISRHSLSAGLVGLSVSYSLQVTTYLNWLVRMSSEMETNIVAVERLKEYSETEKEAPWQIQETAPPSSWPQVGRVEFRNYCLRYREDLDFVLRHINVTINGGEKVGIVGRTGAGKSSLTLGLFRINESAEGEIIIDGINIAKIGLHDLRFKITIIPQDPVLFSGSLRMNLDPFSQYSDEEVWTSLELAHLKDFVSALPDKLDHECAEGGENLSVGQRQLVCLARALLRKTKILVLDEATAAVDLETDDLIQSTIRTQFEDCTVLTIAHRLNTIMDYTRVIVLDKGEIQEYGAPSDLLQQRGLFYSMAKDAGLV
Procedure: as §1
as §2, with “mM).” for “mM). The cell lines were stored in a mixture of 90% cell culture medium and 10% DMSO under liquid nitrogen, while cultivation was performed at 37 °C under 5% CO2-humidified atmosphere. After a confluence of 90% was reached, the cells were harvested using a 0.05%/0.02% trypsin-EDTA solution (PAN-Biotech GmbH, Aidenbach, Germany).”
as §3

ABCG2 = target: T3, ABCG2 (Homo sapiens, UniProt Q9UNQ0); experiment: pheophorbide A fluorescence accumulation assay, ABCG2-overexpressing MDCK II BCRP cells
T3 construct: host or cells: MDCK II BCRP
T3 sequence (Q9UNQ0 1-655): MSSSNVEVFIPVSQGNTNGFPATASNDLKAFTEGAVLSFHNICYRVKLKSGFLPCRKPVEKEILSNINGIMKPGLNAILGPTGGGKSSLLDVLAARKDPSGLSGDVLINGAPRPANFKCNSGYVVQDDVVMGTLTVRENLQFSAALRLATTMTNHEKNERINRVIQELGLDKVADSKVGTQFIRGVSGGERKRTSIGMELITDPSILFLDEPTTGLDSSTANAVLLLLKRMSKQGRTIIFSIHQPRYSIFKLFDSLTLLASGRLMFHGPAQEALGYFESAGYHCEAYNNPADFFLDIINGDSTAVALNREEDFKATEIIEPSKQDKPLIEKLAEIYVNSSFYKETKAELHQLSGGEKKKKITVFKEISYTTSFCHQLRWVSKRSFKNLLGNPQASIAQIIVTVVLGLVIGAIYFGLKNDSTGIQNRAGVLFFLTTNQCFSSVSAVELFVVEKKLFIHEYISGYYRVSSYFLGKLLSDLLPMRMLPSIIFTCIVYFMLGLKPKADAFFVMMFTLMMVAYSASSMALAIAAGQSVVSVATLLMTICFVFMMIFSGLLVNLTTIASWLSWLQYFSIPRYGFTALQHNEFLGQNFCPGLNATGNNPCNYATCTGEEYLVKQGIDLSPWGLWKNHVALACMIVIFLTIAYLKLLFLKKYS
Procedure: as §1, with “Fig. 7 provides the screening results for ABCB1 (A), ABCC1 (B), and ABCG2 (C).” left out
The inhibitory activity against ABCG2 was evaluated in a pheophorbide A assay as reported earlier, [67]. […] The effect values of compounds 16–25 were measured via flow cytometry [Guava easyCyte^TM HT, (Merck Millipore, Billerica, MA, USA; excitation: 488 nm; emission: 695/50 nm)] and compared to the effect value of 10 µM of compound 27.

T1 sequence (P08183 whole entry): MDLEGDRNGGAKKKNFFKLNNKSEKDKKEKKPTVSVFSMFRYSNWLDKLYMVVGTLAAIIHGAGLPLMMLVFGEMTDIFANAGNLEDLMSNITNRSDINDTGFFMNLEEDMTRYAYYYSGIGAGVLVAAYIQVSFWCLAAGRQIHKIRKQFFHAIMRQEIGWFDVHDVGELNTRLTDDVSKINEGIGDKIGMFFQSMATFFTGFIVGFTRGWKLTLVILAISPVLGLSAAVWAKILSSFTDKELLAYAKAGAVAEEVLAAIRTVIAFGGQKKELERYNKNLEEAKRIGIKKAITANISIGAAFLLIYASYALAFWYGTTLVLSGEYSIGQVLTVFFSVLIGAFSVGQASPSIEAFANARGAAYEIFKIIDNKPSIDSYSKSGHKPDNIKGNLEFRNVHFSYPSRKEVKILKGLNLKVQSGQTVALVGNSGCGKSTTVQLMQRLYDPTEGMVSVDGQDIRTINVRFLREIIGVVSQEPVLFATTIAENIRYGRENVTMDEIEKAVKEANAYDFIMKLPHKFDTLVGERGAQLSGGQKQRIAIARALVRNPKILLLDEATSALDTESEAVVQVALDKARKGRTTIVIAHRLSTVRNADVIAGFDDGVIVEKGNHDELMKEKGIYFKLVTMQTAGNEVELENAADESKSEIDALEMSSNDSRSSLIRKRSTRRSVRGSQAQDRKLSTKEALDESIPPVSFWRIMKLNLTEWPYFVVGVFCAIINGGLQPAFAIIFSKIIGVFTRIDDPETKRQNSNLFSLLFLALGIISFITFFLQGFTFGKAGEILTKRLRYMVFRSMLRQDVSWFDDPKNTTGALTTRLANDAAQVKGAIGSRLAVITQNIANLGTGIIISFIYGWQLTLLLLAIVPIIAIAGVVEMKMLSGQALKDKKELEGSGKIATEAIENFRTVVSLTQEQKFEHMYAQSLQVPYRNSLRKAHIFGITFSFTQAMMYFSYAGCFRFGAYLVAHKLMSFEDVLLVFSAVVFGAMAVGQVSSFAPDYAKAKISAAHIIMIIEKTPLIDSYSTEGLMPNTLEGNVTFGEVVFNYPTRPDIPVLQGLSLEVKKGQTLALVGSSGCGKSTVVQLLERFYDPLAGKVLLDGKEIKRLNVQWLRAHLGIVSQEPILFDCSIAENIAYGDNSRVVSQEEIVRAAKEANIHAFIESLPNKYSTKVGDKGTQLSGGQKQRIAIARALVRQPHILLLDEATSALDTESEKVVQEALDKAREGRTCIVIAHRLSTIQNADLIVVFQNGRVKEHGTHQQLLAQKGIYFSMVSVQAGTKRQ

## Cc1onc(-c2ccccc2)c1-c1nnc(CN2CCCC2c2ccc3c(c2)OCCCO3)o1 (centres unmarked) [compound 16, 2-((2-(3,4-dihydro-2H-benzo[b][1,4]dioxepin-7-yl)pyrrolidin-1-yl)methyl)-5-(5-methyl-3-phenyl-isoxazol-4-yl)-1,3,4-oxadiazole]
ABCB1
  activity against ABCB1 in preliminary screening: activities against ABCB1
ABCC1
  activity against ABCC1 in preliminary screening: inhibited ABCC1

## O=C(NC1CCC(OC(=O)c2cncn2-c2ccc(F)cc2)CC1)c1cncn1-c1ccc(F)cc1 (centres unmarked) [compound 17, 4-(1-(4-fluorophenyl)-1H-imidazole-5-carboxamido)cyclohexyl 1-(4-fluorophenyl)-1H-imidazole-5-carboxylate]
ABCB1
  activity against ABCB1 in preliminary screening: activities against ABCB1

## O=C(CN1CCN(C(=O)Cn2cnc3scc(-c4cccs4)c3c2=O)CC1)N1CCCCCC1 [compound 18, 3-(2-(4-(2-(azepan-1-yl)-2-oxoethyl)piperazin-1-yl)-2-oxoethyl)-5-(thiophen-2-yl)thieno[2,3-d]pyrimidin-4(3H)-one]
ABCC1
  activity against ABCC1 in preliminary screening: inhibited ABCC1

## O=C(c1cccn1-c1nnc(N2CCCC2)s1)N1CCN(Cc2ccc3c(c2)OCO3)CC1 [compound 19, (4-(benzo[d][1,3]dioxol-5-ylmethyl)piperazin-1-yl)(1-(5-(pyrrolidin-1-yl)-1,3,4-thiadiazol-2-yl)-1H-pyrrol-2-yl)methanone]
ABCB1
  activity against ABCB1 in preliminary screening: activities against ABCB1

## C1=CC2=NC3N4CN(CCCN5CCOCC5)CNC4=NC(c4ccccn4)N3C2C=C1 (centres unmarked) [compound 20, 4-(3-(6-(pyridin-2-yl)-4,6,7a,12a-tetrahydro-1H-benzo[4,5]imidazo[1,2-a][1,3,5]triazino[1,2-c][1,3,5]triazin-2(3H)-yl)propyl)morpholine]
ABCB1
  activity against ABCB1 in preliminary screening: did inhibit neither of the evaluated transporters
ABCC1
  activity against ABCC1 in preliminary screening: did inhibit neither of the evaluated transporters
ABCG2; screened at 10 µM, active = at least 20% (+SEM) of effect of 10 µM compound 27
  activity against ABCG2 in preliminary screening: did inhibit neither of the evaluated transporters

## Cc1nc(N2CCN(C(=O)C(c3ccccc3)c3ccccc3)CC2)cc(-n2ccnc2)n1 [compound 23, 1-(4-(6-(1H-imidazol-1-yl)-2-methylpyrimidin-4-yl)piperazin-1-yl)-2,2-diphenylethan-1-one]
ABCB1; calcein AM assay, A2780/ADR cells, 100% = 10 µM reference inhibitor 2, read-out: IC50 against ABCB1
  IC50: 4.01 µM
ABCC1; calcein AM assay, H69AR cells, 100% = 10 µM reference inhibitor 26, read-out: IC50 against ABCC1
  IC50: 14.8 µM
ABCG2; pheophorbide A assay, MDCK II BCRP cells, 100% = 10 µM reference inhibitor 27, read-out: IC50 against ABCG2
  IC50: 9.27 µM

Reference: article PMC8193046, “Scaffold fragmentation and substructure hopping reveal potential, robustness, and limits of computer-aided pattern analysis (C@PA)” (Computational and Structural Biotechnology Journal, 2021)
